Common to all, as to test: NCI-60 cell line screen, 48 h
Assay [1] has as its system ACHN.
For assay [2], the system named is CCRF-CEM.
Assay [3] concerns DMS-114.
Assay [4] relates to EKVX.
The test system of assay [5] is HOP-62.
Assay [6] concerns IGROV-1.
Assay [7] concerns M19-MEL.
The test system of assay [8] is NCI-H460.
The subject of assay [9] is OVCAR-8.
Assay [10] relates to RPMI-8226.
Assay [11] deals with SF-295.
Assay [12] has as its system TK-10.
Assay [13] has as its system U-251.
The test system of assay [14] is UACC-257.
Assay [15] deals with A498.
Assay [16] relates to DU-145.
Assay [17] relates to Hs-578T.
Assay [18] has as its system MCF7.
Assay [19] concerns MDA-MB-435.
In assay [20] the test system is MDA-N.

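Protocol summary: plate cells (96-well), add compound at 5 concentrations, incubate 48 h, interpolate endpoints linearly. GI50 is the concentration that inhibits growth by half.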 Active and inactive are the calls of the source. Rule as the data show it: active = GI50 up to about 1.1 µM and inactive = higher.

14 molecules from ChEMBL document CHEMBL1201862, “PubChem BioAssay data set” (2004) can be followed below.

As to `CCOC(=O)C1(C#N)C(c2ccccc2)CC(O)(c2ccc(Cl)cc2)C(C(=O)c2ccc(Cl)cc2)C1c1ccccc1` (configuration not stated), the GI50 in assay [1] is > 100 µM (inactive); in [2], > 100 µM (inactive); in [3], > 100 µM (inactive); in assay [4], 52.2 µM (inactive); in assay [5], > 100 µM (inactive); in [6], > 100 µM (inactive). The GI50 in assay [7] was > 100 µM (inactive); in assay [8] it was > 100 µM (inactive); in assay [9], > 100 µM (inactive); in assay [10] it was 76.6 µM (inactive); in [11] it was 41 µM (inactive); in [12], > 100 µM (inactive). In addition, the GI50 was > 10 µM (inactive) in assay [13] and > 100 µM (inactive) in assay [14].

In the case of `NC(=S)NNC(=O)CCC(=O)Nc1ccc(Cl)cc1Cl`, the GI50 in assay [15] is > 100 µM (inactive); in assay [1] it was > 100 µM (inactive); in [2], > 100 µM (inactive); in [3], 41.7 µM (inactive); in assay [5] it was > 100 µM (inactive); in assay [6], > 100 µM (inactive). Further, the GI50 is > 100 µM (inactive) in assay [7]; > 100 µM (inactive) in assay [8]; > 100 µM (inactive) in [9]; 43.5 µM (inactive) in assay [10]; > 100 µM (inactive) in assay [11]; > 100 µM (inactive) in [12]. For the same molecule, the GI50 in [13] and in assay [14] was > 100 µM (inactive) in each case.

Regarding `CCN1c2ccccc2-c2c3c1cc(C)cc3c1ccccc1[n+]2CC`, the GI50 is 3.26 µM (inactive) in assay [15]; 2.16 µM (inactive) in [1]; 0.621 µM (active) in assay [2]; 0.461 µM (active) in assay [3]; 2.04 µM (inactive) in [5]; 1.66 µM (inactive) in assay [6]. Further, the GI50 was 0.36 µM (active) in assay [7]; 1.23 µM (inactive) in assay [8]; 0.427 µM (active) in [9]; 0.466 µM (active) in assay [10]; 0.78 µM (active) in [11]; 2.56 µM (inactive) in assay [12]. The GI50 in assay [13] is 0.571 µM (active); in assay [14] it was 0.437 µM (active).

`CC(CN1CCN(CC(C)Nc2ccnc3cc(Cl)ccc23)CC1)Nc1ccnc2cc(Cl)ccc12` (configuration not stated): the GI50 in assay [15] was 18 µM (inactive); in assay [1], 28.8 µM (inactive); in assay [2], 3.69 µM (inactive); in [3] it was 20.2 µM (inactive); in assay [4] it was 19 µM (inactive); in assay [5], 22.5 µM (inactive). Further, the GI50 in assay [7] is 21.8 µM (inactive); in [8] it was 14.7 µM (inactive); in [9], 18.9 µM (inactive); in assay [10], 9.79 µM (inactive); in assay [11], 19.6 µM (inactive); in [12] it was 23.9 µM (inactive). Moreover, the GI50 is 18.5 µM (inactive) in [13] and 19.4 µM (inactive) in assay [14].

`CSc1ccc2c(cc1=O)[C@@H](NC(=O)c1cccc([N+](=O)[O-])c1)CCc1cc(O)c(O)c(O)c1-2`: the GI50 in assay [15] was 27.7 µM (inactive); in [1] it was > 100 µM (inactive); in assay [2], 34 µM (inactive); in assay [3] it was 24.4 µM (inactive); in assay [4], 50.9 µM (inactive); in assay [5], > 100 µM (inactive). Besides, the GI50 is 46.2 µM (inactive) in [6]; 22.1 µM (inactive) in assay [7]; 54.2 µM (inactive) in assay [8]; 66.5 µM (inactive) in assay [9]; 28.1 µM (inactive) in [10]; 42.4 µM (inactive) in assay [11]. Further, the GI50 is > 100 µM (inactive) in [12], 22.8 µM (inactive) in assay [13] and 87.9 µM (inactive) in [14].

As to `C[n+]1c2ccccc2c(NCC(=O)O)c2ccccc21`, the GI50 is > 100 µM (inactive) in assay [15]; > 100 µM (inactive) in [1]; > 100 µM (inactive) in assay [3]; 87.5 µM (inactive) in assay [4]; > 100 µM (inactive) in [5]; > 100 µM (inactive) in assay [6]. The GI50 in assay [7], in assay [8], in assay [9], in [10], in assay [11] and in assay [12] was > 100 µM (inactive) throughout. For the same molecule, the GI50 in assay [13] and in [14] was > 100 µM (inactive) each time.

`O=C1CN=C(C[N+](=O)[O-])c2ccccc21`: the GI50 in [15], in [1], in assay [3], in [4], in assay [5] and in [6] was > 100 µM (inactive) throughout. The GI50 in [8], in [9], in assay [10], in [11], in assay [13] and in assay [14] was > 100 µM (inactive) each time.

Regarding `CCCCCCCCCCCCOCCCOP(=O)([O-])OCC[N+](C)(C)C`, the GI50 in [15] is 30 µM (inactive); in [1] it was 30.6 µM (inactive); in assay [2], 21.1 µM (inactive); in assay [16], 34.3 µM (inactive); in assay [4], 99.1 µM (inactive); in assay [5], 43.2 µM (inactive). The GI50 in [17] was 22.4 µM (inactive); in assay [6], 6.14 µM (inactive); in [7], 28.2 µM (inactive); in assay [18], 45.2 µM (inactive); in [19], 23.9 µM (inactive); in assay [20], 13 µM (inactive). The GI50 was 13.9 µM (inactive) in assay [8]; 47.8 µM (inactive) in assay [9]; 9.08 µM (inactive) in assay [10]; 35.5 µM (inactive) in assay [11]; 3.4 µM (inactive) in assay [12]; 16.1 µM (inactive) in assay [13]. Further, the GI50 in assay [14] was > 76 µM (inactive).

Turning to `O=C1C2C3CC(C4C5C=CC(C5)C34)C2C2C3CC(C12)C1C2C=CC(C2)C31` (configuration not stated), the GI50 in [15] was > 100 µM (inactive); in assay [1], > 100 µM (inactive); in [2] it was 61.4 µM (inactive); in assay [3], > 100 µM (inactive); in [4], > 100 µM (inactive); in assay [5], > 100 µM (inactive). In addition, the GI50 in [6] was > 100 µM (inactive); in assay [7], > 100 µM (inactive); in assay [8], 26.8 µM (inactive); in assay [9] it was > 100 µM (inactive); in assay [11] it was > 100 µM (inactive); in assay [12], > 100 µM (inactive). Moreover, the GI50 in assay [13] and in assay [14] was > 100 µM (inactive) throughout.

In the case of `COc1cc2c(c(OC)c1OC)-c1ccc(SC)c(=O)cc1C(CC(=O)Oc1ccccc1F)C2` (configuration not stated), the GI50 in assay [15] was 0.0269 µM (active); in assay [1] it was 0.0834 µM (active); in [2], 0.0132 µM (active); in assay [3], 0.0152 µM (active); in assay [5], 0.0175 µM (active); in [6], 0.164 µM (active). For the same molecule, the GI50 in [7] was 0.0218 µM (active); in assay [8] it was 0.0103 µM (active); in assay [9] it was 0.0328 µM (active); in assay [10], < 0.0075 µM (active); in assay [11], < 0.0075 µM (active); in assay [12] it was > 7.5 µM (inactive). Besides, in assay [13], the GI50 is < 0.0075 µM (active).

For `COC(=O)CCC(NC(=S)N/N=C(\C)c1nccs1)C(=O)OC` (configuration not stated), the GI50 in assay [15] was > 100 µM (inactive); in assay [1], 47.6 µM (inactive); in assay [3] it was 22.6 µM (inactive); in assay [4] it was 67.6 µM (inactive); in assay [5] it was 48.8 µM (inactive); in [6], 73.5 µM (inactive). The GI50 in assay [7] was 50.5 µM (inactive); in [8], 53.3 µM (inactive); in [9], 68.4 µM (inactive); in assay [10], 3.23 µM (inactive); in assay [11] it was 87.7 µM (inactive); in assay [12], > 100 µM (inactive). In addition, the figures for the GI50 in [13] and in assay [14] were 78.2 µM (inactive) and > 100 µM (inactive), respectively.

For the molecule `O=C(CC1C(=O)Nc2ccccc2[S+]1[O-])Nc1ccccc1` (configuration not stated), the GI50 in assay [15] was > 100 µM (inactive); in assay [1], 59.7 µM (inactive); in assay [2], > 100 µM (inactive); in assay [3], > 100 µM (inactive); in assay [4], > 100 µM (inactive); in [5], > 100 µM (inactive). The GI50 in assay [6] was > 100 µM (inactive); in assay [7] it was > 100 µM (inactive); in [8] it was > 100 µM (inactive); in assay [9], 36.4 µM (inactive); in assay [11], > 100 µM (inactive); in assay [12] it was > 100 µM (inactive). Also, the GI50 in assay [13] and in assay [14] was > 100 µM (inactive) in each case.

On to `CC(C)[C@H](CCl)NC(=O)c1cccc(C(=O)N[C@H](CCl)C(C)C)n1` (stereo in doubt), for which the GI50 in [15] was 78.7 µM (inactive); in assay [1], > 100 µM (inactive); in [2], > 100 µM (inactive); in [3], > 100 µM (inactive); in assay [4], > 100 µM (inactive); in [5], > 100 µM (inactive). Further, the GI50 in assay [6], in assay [7], in [8], in [10], in [11] and in assay [12] was > 100 µM (inactive) in each case. For the same molecule, the GI50 in assay [13] is > 100 µM (inactive).

Consider `Cc1ccc(Oc2ccc(C(=O)c3cccc(C(=O)c4ccc(Oc5ccc(C)cc5)cc4)n3)cc2)cc1`, for which the GI50 in assay [15], in assay [1], in assay [2], in assay [3], in [4] and in [5] was > 100 µM (inactive) each time. The GI50 in assay [6], in assay [8], in [9], in assay [11], in assay [12] and in assay [13] was > 100 µM (inactive) throughout. In addition, the GI50 in assay [14] was > 100 µM (inactive).
